Assay [1] deals with HCT-116. The assay can be described thus: Cytotoxicity against human HCT-116 cells assessed as inhibition rate incubated for 48 hrs by MTT. The following applies: HCT-116, 48 h. The assay is classed as functional, cell-based.
Another assay relates to HeLa. The experiment in a line: Cytotoxicity against human HeLa cells assessed as inhibition rate incubated for 48 hrs by MTT. The assay is classed as functional, cell-based.
For another assay, the system named is MDA-MB-231. The assay can be described thus: Cytotoxicity against human MDA-MB-231 cells assessed as inhibition rate incubated for 48 hrs by MTT. Type of assay: functional, cell-based. Particulars: MDA-MB-231, 48 h.
For another assay, the system named is A498. The experiment in a line: Cytotoxicity against human A498 cells assessed as inhibition rate incubated for 48 hrs by MTT. Type of assay: functional, cell-based. Particulars: A498, 48 h.
In assay [2] the test system is HCT-116. The experiment in a line: Inhibition of cell proliferation in human HCT-116 cells at 10 uM by colony formation assay relative to control. The assay is classed as functional, cell-based.
Assay [3] concerns HCT-116. The assay can be described thus: Inhibition of cell adhesion in human HCT-116 cells at 10 uM. The assay is classed as functional, cell-based.
Assay [4] has as its system HCT-116. The experiment in a line: Inhibition of cell migration in human HCT-116 cells assessed as repair capacity at 5 to 10 uM measured upto 48 hrs by scratch assay. The assay is classed as functional, cell-based. Particulars: dose 5-10 µM.
In assay [5] the test system is HCT-116. The experiment in a line: Inhibition of cell adhesion in human HCT-116 cells at 5 uM. The assay is classed as functional, cell-based.
The test system of assay [6] is HCT-116. The experiment in a line: Inhibition of cell invasion in human HCT-116 cells at 5 uM by Transwell assay. The assay is classed as functional, cell-based.
Assay [7] relates to HCT-116. The assay can be described thus: Activation of TNFR-mediated TNF signaling pathway in human HCT-116 cells by GSEA analysis. Type of assay: cell-based. The following applies: filed as activator.
Assay [8] addresses Cellular tumor antigen p53 (Homo sapiens) (UniProt P04637). The experiment in a line: Activation of p53 signaling pathway in human HCT-116 cells by GSEA analysis. Type of assay: cell-based. The following applies: filed as activator.
Assay [9] concerns HCT-116. The experiment in a line: Induction of DNA damage in human HCT-116 cells assessed as upregulation of gamma-H2AX level incubated for 24 hrs by immunoblotting analysis. The assay is classed as functional, cell-based. The following applies: dose 2.5-10 µM.
The subject of assay [10] is HCT-116. The assay can be described thus: Antitumor activity against human HCT116 cells xenografted in chick embryo chorioallantoic membrane assessed as reduction in tumor volume by CAM assay. The following applies: dose 5-10 µM. Type of assay: functional, cell-based.
For assay [11], the system named is HCT-116. The experiment in a line: Induction of DNA damage in human HCT-116 cells assessed as upregulation of gamma-H2AX level at 10 uM by immunoblotting analysis. Type of assay: functional, cell-based.
The subject of assay [12] is HCT-116. The experiment in a line: Induction of DNA damage in human HCT-116 cells assessed as upregulation of p53 level at 10 uM incubated for 24 hrs by immunoblotting analysis. The assay is classed as functional, cell-based. In general terms: A western blot detects proteins with antibodies after separation by electrophoresis.
For assay [13], the system named is HCT-116. The assay can be described thus: Induction of DNA damage in human HCT-116 cells assessed as upregulation of BAX level at 10 uM incubated for 24 hrs by immunoblotting analysis. The assay is classed as functional, cell-based.
Assay [14] relates to HCT-116. The experiment in a line: Induction of DNA damage in human HCT-116 cells assessed as downregulation of BCL2 level at 10 uM incubated for 24 hrs by immunoblotting analysis. Type of assay: functional, cell-based.
The test system of assay [15] is HCT-116. The assay can be described thus: Induction of DNA damage in human HCT-116 cells assessed as upregulation of p53 level at 5 uM incubated for 24 hrs by immunofluorescence based analysis. The assay is classed as functional, cell-based.
Assay [16] concerns HCT-116. The assay can be described thus: Induction of DNA damage in human HCT-116 cells assessed as upregulation of p53 level at 10 uM incubated for 24 hrs by immunofluorescence based analysis. Type of assay: functional, cell-based.
Assay [17] concerns HCT-116. The assay can be described thus: Induction of DNA damage in human HCT-116 cells assessed as upregulation of p21 level incubated for 24 hrs by PCR analysis. Type of assay: functional, cell-based. Particulars: dose 2.5-10 µM.
Assay [18] concerns HCT-116. The experiment in a line: Antitumor activity against human HCT116 cells xenografted in chick embryo chorioallantoic membrane assessed as reduction in angiogenesis by CAM assay. Type of assay: functional, cell-based. Particulars: dose 5-10 µM. A general note: Xenograft models place foreign cells or tissue in a host animal.

Molecules are shown by their SMILES. pIC50: −log10 of the molar value. Calls of active or inactive are those of the source. The rule behind the calls is not given here.

Sequence of Cellular tumor antigen p53 (Homo sapiens) (P04637 whole entry, looked up): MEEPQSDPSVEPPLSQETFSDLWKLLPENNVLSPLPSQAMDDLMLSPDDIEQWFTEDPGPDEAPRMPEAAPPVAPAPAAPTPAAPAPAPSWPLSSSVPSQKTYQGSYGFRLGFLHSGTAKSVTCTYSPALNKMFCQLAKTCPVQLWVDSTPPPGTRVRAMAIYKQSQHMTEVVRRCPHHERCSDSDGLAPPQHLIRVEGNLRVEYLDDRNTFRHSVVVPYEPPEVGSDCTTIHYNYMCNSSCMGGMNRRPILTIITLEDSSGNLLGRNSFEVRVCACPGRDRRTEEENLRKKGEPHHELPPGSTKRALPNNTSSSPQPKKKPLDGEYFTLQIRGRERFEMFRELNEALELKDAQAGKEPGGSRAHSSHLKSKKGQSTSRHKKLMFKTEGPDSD

As for `CCOc1cc2ncc(C#N)c(Nc3ccc(OCc4ccccn4)c(Cl)c3)c2cc1NC(=O)/C=C/CN(C)C` [NERATINIB], the pIC50 (in general, the IC50 on a negative log10 scale, so that one unit is a factor of ten) in the assay on HCT-116 [1] is 4.76; in the assay with HeLa, 4.74; with MDA-MB-231, 4.56; in the assay with A498 it was 4.71. Moreover, the inhibition result in the assay with HCT-116 [2] and in the assay with HCT-116 [3] was “Active” in each case. The result with HCT-116 [4] was Active.

With `O=C(Nc1ccc(OCc2ccccn2)c(Cl)c1)c1ccc(CN2CCN(C(=O)C3CC3)CC2)cc1`, the pIC50 with HCT-116 [1] is 5.14; in the assay with HeLa, 4.87; with MDA-MB-231, 4.75; with A498, 4.73. In the assay on HCT-116 [2], the inhibition entry is “Active; Significantly Decreased Colony Formation”. The inhibition result in the assay on HCT-116 [5], in the assay with HCT-116 [3] and with HCT-116 [6] was “Active” each time. For the same compound, the Activity entry with HCT-116 [4] was “Dose-dependent-effect; Stronger Inhibition”; in the assay with HCT-116 [9], “Dose-dependent-effect”; in the assay on HCT-116 [10] it was “Dose-dependent-effect”; with HCT-116 [11], “Time-dependent-effect”; in the assay with HCT-116 [17] it was “Dose-dependent-effect”; in the assay with HCT-116 [18] it was “Dose-dependent-effect”. The result (with HCT-116 [7]; in assay [8]; in the assay with HCT-116 [12]; with HCT-116 [13]; with HCT-116 [14]; in the assay with HCT-116 [15]) was Active. Further, the outcome with HCT-116 [16] was Active.

The values above are taken from ChEMBL document CHEMBL6103554, “Neratinib derivative 7A induces apoptosis in colon cancer cells via the p53 pathway” (Bioorg Med Chem Lett, 2025).
